# Earlier results, collected in patent US4743707A, “Process for purifying allyl alcohol” (priority 1986, dated 1988).
# Conditions: 20° C.; Ullmanns Encyklopadie
smiles,measurement,value
"O=P([O-])([O-])OP(=O)([O-])OP(=O)([O-])[O-].[K+].[K+].[K+].[K+].[K+] [Potassium tripolyphosphate, potassium tripolyphosphate]",water solubility,about 67%
